Assay results as given in patent US12678453B2, “Aerosolized formulations of HIV protease inhibitors for the treatment of airway reflux” (The Medical College of Wisconsin, Inc., priority 2020, dated 2026).
Entries after “also recorded” stand apart in the source; their conditions may differ.

System: mouse model of laryngopharyngeal reflux (LPR)
Test: in vivo mouse model of LPR (laryngeal wounding and pepsin instillation, H&E histology)
Settings: for laryngeal histology (H&E) / pepsin-mediated laryngeal injury: pepsin pH7 group; for laryngeal histology (H&E): solvent (saline/PBS pH7) group
Excerpt: An in vivo mouse model of direct application of pepsin, to mimic laryngeal exposure during LPR, and treatment with select HIV protease inhibitors by either gavage (oral systemic delivery) or aerosolized delivery (inhaled local delivery) was used. […] Each group contained 3 mice. Six-week-old female Jackson A/J mice (Jackson Laboratory, Bar Harbor, ME), weighed one day after arrival, then weekly, on Mondays thereafter.
Avertin was the preferred anesthetic for the brief application time needed as it has a rapid induction, produces a short surgical anesthesia, and has a rapid recovery. […] For this experiment, isoflurane inhalation was used. The isoflurane, self-scavenging machine, was operated at 3% isoflurane with 2.5 liters of air per minute (LPM). The induction chamber was charged for 3-5 minutes prior to the mice being anesthetized. Mice were placed in the induction chamber for 3-5 minutes prior to any wounding or administrations. Anesthesia records were kept according to IACUC policy.
Animals secured by a copper wire attached to the board from which the mice were suspended by their upper teeth. This caused the lower jaw to fall open naturally, exposing the larynx and permitting visualization with a Zeiss microscope at 6× magnification. […] Under direct visualization, the subglottis, glottis, and supraglottis regions were superficially scratched interiorly from distal to proximal as the needle was pulled out gently, making a mild abrasion. This procedure was performed twice, with one week between woundings.
To examine the effect pepsin at acid and nonacid pH, animals were treated for 2 weeks with laryngeal instillation of pepsin (20 μL at 0.3 mg/ml, pH 7.0 or pH 4.0) at 24, 48, and 72 h post wounding procedure. During weeks 3 and 4, animals were treated with laryngeal instillation for 3 days per week. Mice were sacrificed and samples collected on Friday of the fourth week.
The twelve mice in the aerosol groups were condition in the nose-only exposure chamber (Intox) on three separate days by exposure to dry air for 10 min. Beginning the Monday (day 1) of the next week, aerosols and gavages were performed on the mice Monday through Friday (5 exposures). The aerosols and gavages continued Monday-Friday for three more weeks, with the final week consisting of 4 total exposure days, Monday-Thursday, (19 total) with the mice sacrificed and tissues harvested on Friday. Each mouse received two woundings and 12 solvent or pepsin administrations. Wounding and intratracheal administrations were concurrent with the aerosol and gavage treatments. The first wounding was performed on day 2, followed by solvent or pepsin administrations on days 3, 4, and 5. The second wounding was performed on day 8, followed by solvent or pepsin administrations on days 9, 10, and 11. In weeks 3 and 4, mice received solvent or pepsin administrations on days 16, 17, and 18 and days 23, 24, and 25. Day 26 was sacrifice and tissue harvest.
A 10 mL suspension of drug in ethanol was placed in the baffle, such that the concentration would remain constant at the equilibrium solubility. Droplets of ethanol containing dissolve drug were generated by an ultrasonic atomizer (nominal frequency 1.7 MHz) entrained by air at a flow rate of 0.5 LPM with a custom-built glass baffle (University of Minnesota, Department of Chemistry Glass Shop). The aerosol cloud was then passed through a cylindrical drying column containing an annular ring of charcoal. The ethanol is removed and the emanating dry aerosol particles of pure drug were then directed into the exposure chamber.
The mass deposited on the filters in a fixed collection time was measured gravimetrically, and with the collection time, allowed calculation of the total output rate (mg/min). The aerosol concentration (mass/volume of air) was calculated by dividing the total output rate by the air flow rate (0.5 LPM).

Compound: CC(C)CN(C[C@@H](O)[C@H](Cc1ccccc1)NC(=O)O[C@H]1CO[C@H]2OCC[C@H]21)S(=O)(=O)c1ccc(N)cc1 [darunavir, [(3a S,4R,6aR)-2,3,3a,4,5,6a-hexahydrofuro[2,3-b]furan-4-yl] N-[(2S,3R)-4-[(4-aminophenyl)sulfonyl-(2-methylpropyl)amino]-3-hydroxy-1-phenylbutan-2-yl]carbamate]
- pepsin-mediated laryngeal injury (multi-layered, reactive epithelia and cell apoptosis) (aerosol, 12 mg/kg/d): effective in preventing pepsin mediated injury
- laryngeal histology (H&E) / pepsin-mediated laryngeal injury (aerosol): normal histology; also recorded: mild protection against pepsin-mediated damage
- laryngeal histology (H&E) (aerosol): normal histology
- laryngeal histology (H&E) / pepsin-mediated laryngeal injury (gavage): appeared similar
- laryngeal histology (H&E) / pepsin-mediated laryngeal injury (gavage, listed as Darunavir): mild reactive epithelia in the pepsin group but less than pepsin control
- laryngeal histology (H&E) (gavage): mild reactive epithelia in the solvent group, but less than pepsin control; also recorded: mild reactivity (rare intraepithelial lymphocytes)
